The record followed here is patent US7026359B1, “Utilization of a highly fluorinated oligomeric alkane in ophthalmology” (Bausch & Lomb Incorporated, priority 1999, dated 2006).

Common to all, as to format: physicochemical
One data set is described as follows: Refractive index.
A further data set in a line: Surface tension.
A short description of data set [1]: Sterilization in an autoclave (stability). The conditions noted are these: 121° C. in an autoclave. Here is the method:
The highly fluorinated oligomer (C6F13CHCH2)3 is dissolved in fluorocarbons and purified via an Al2O3 chromatographic column. After removal of the solvent the last traces of volatile contaminants are removed in a vacuum. The highly fluorinated trimer according to nuclear spin resonance, infrared and mass spectroscopic tests, a uniform and highly pure substance with a molecular weight of 1055. Charging with an active agent takes place under mild conditions via a solvent that is not miscible with the trimer after distribution to saturation concentration. β-Carotene as active agent changes the color of the oligomer slightly. […] The nuclear magnetic data of this substance are as follows: […]

Data set [2] is described as follows: Critical solubility temperature in hexane (CST), qualitative measure of lipophilicity / tissue penetration. An excerpt:
The tissue penetration capacity can be described qualitatively by the critical solubility temperature in hexane (abbreviation: CST). This qualitative measure of lipophilicity is at the same time a measure of the capacity for tissue penetration.

Another data set is described as follows: Density.
Another data set can be described thus: Viscosity.

For the substance (C6F13CHCH2)3 [Example 1], in the data set “Refractive index”, the “Refractive index n^D20” value is recorded as 1.3351. The same substance gave a Surface tension in “Surface tension” of 19.5 mN/m. Besides, in data set [1], the Stability on sterilization result was “without the physical or chemical properties of the substances being changed”. Also, in data set [2], the “Critical solubility temperature in n-hexane, CST” value came to 35 °C. Moreover, the Density in “Density” was found to be 1.661 g/mL. Besides, in “Viscosity”, the Viscosity is reported as 220 mPa·sec.
